Source: paper PMC5218480 (PLoS ONE, 2017)

System: MV-4-11 cells
Test: Gene expression microarray analysis (Affymetrix PrimeView) and GSEA
Format: cell-based, human
Design: RFU PODN (11730768_x_at) / Fold change /veh PODN (11730768_x_at) / RFU LINC00158 (11744669_a_at) / Fold change /veh LINC00158 (11744669_a_at) / RFU DUSP10 (11751237_a_at) / Fold change /veh DUSP10 (11751237_a_at) / RFU ID3 (11757404_x_at) / Fold change /veh ID3 (11757404_x_at) / RFU PLEKHG5 (11737974_s_at) / Fold change /veh PLEKHG5 (11737974_s_at) / RFU LRRC4B (11730491_at) / Fold change /veh LRRC4B (11730491_at) / RFU GIMAP4 (11747438_a_at) / Fold change /veh GIMAP4 (11747438_a_at) / RFU KRT8 (11758183_x_at) / Fold change /veh KRT8 (11758183_x_at) / RFU CNN1 (11734310_a_at) / Fold change /veh CNN1 (11734310_a_at) / RFU VPS37D (11726825_at) / Fold change /veh VPS37D (11726825_at) / RFU C10orf10 (11716522_x_at) / Fold change /veh C10orf10 (11716522_x_at) / RFU KIR2DL2 /// KIR2DL4 /// KIR2DL5A /// KIR2DL5B /// KIR2DS1 /// KIR2DS2 /// KIR2DS3 /// KIR2DS4 /// KIR3DL3 /// KIR3DL3 /// KIR3DS1 (11738374_at) / Fold change /veh KIR2DL2 /// KIR2DL4 /// KIR2DL5A /// KIR2DL5B /// KIR2DS1 /// KIR2DS2 /// KIR2DS3 /// KIR2DS4 /// KIR3DL3 /// KIR3DL3 /// KIR3DS1 (11738374_at) / RFU C1QL1 (11718748_at) / Fold change /veh C1QL1 (11718748_at) / RFU TMPRSS4 (11747572_a_at) / Fold change /veh TMPRSS4 (11747572_a_at) / RFU HAMP (11756126_x_at) / Fold change /veh HAMP (11756126_x_at) / RFU RNFT2 (11725882_a_at) / Fold change /veh RNFT2 (11725882_a_at) / RFU NR4A2 (11747474_a_at) / Fold change /veh NR4A2 (11747474_a_at) / RFU ABCC12 (11746883_a_at) / Fold change /veh ABCC12 (11746883_a_at) / RFU TMEM136 (11760407_x_at) / Fold change /veh TMEM136 (11760407_x_at) / RFU CLDN22 /// WWC2 (11732394_at) / Fold change /veh CLDN22 /// WWC2 (11732394_at) / RFU HLA-DPB1 (11760878_x_at) / Fold change /veh HLA-DPB1 (11760878_x_at) / RFU SPINT1 (11716480_a_at) / Fold change /veh SPINT1 (11716480_a_at) / RFU GAP43 (11754022_s_at) / Fold change /veh GAP43 (11754022_s_at) / RFU A4GNT (11735810_at) / Fold change /veh A4GNT (11735810_at) / RFU PRB3 (11715151_x_at) / Fold change /veh PRB3 (11715151_x_at) / RFU TUBB4B (11761932_at) / Fold change /veh TUBB4B (11761932_at) / RFU CAPN14 (11732068_a_at) / Fold change /veh CAPN14 (11732068_a_at) / RFU TMCC2 (11721928_a_at) / Fold change /veh TMCC2 (11721928_a_at) / RFU IRGQ (11745062_a_at) / Fold change /veh IRGQ (11745062_a_at) / RFU FAM174B (11720279_a_at) / Fold change /veh FAM174B (11720279_a_at) / RFU TMPRSS4 (11748680_a_at) / Fold change /veh TMPRSS4 (11748680_a_at) / RFU FAM212B (11763350_a_at) / Fold change /veh FAM212B (11763350_a_at) / RFU PLEKHG5 (11743358_a_at) / Fold change /veh PLEKHG5 (11743358_a_at) / RFU ZSCAN30 (11745921_a_at) / Fold change /veh ZSCAN30 (11745921_a_at) / RFU CMKLR1 (11741424_a_at) / Fold change /veh CMKLR1 (11741424_a_at) / RFU LOC101060620 /// MAPK8IP1 (11723275_at) / Fold change /veh LOC101060620 /// MAPK8IP1 (11723275_at) / RFU SPTSSB (11747773_x_at) / Fold change /veh SPTSSB (11747773_x_at) / RFU PRSS12 (11739890_at) / Fold change /veh PRSS12 (11739890_at) / RFU BIN1 (11741810_x_at) / Fold change /veh BIN1 (11741810_x_at) / RFU WNT11 (11732464_a_at) / Fold change /veh WNT11 (11732464_a_at) / RFU C10orf10 (11716521_a_at) / Fold change /veh C10orf10 (11716521_a_at) / RFU C5orf56 (11738089_at) / Fold change /veh C5orf56 (11738089_at) / RFU CYB561 (11721691_x_at) / Fold change /veh CYB561 (11721691_x_at) / RFU ANKRD19P (11752326_a_at) / Fold change /veh ANKRD19P (11752326_a_at) / RFU OR2T12 /// OR2T33 /// OR2T8 (11738714_s_at) / Fold change /veh OR2T12 /// OR2T33 /// OR2T8 (11738714_s_at) / RFU VCAN (11748164_a_at) / Fold change /veh VCAN (11748164_a_at) / RFU JSRP1 (11732532_at) / Fold change /veh JSRP1 (11732532_at) / RFU KRTAP10-11 (11738290_x_at) / Fold change /veh KRTAP10-11 (11738290_x_at) / RFU MYO3A (11730013_a_at) / Fold change /veh MYO3A (11730013_a_at) / RFU EBF3 (11725865_a_at) / Fold change /veh EBF3 (11725865_a_at) / RFU CAMK2N1 (11719241_x_at) / Fold change /veh CAMK2N1 (11719241_x_at) / RFU C5orf56 (11738088_a_at) / Fold change /veh C5orf56 (11738088_a_at) / RFU OLFML3 (11715873_a_at) / Fold change /veh OLFML3 (11715873_a_at) / RFU LOC100653217 /// NTM (11731650_a_at) / Fold change /veh LOC100653217 /// NTM (11731650_a_at) / RFU MAPK11 (11762145_a_at) / Fold change /veh MAPK11 (11762145_a_at) / RFU FIZ1 (11724087_x_at) / Fold change /veh FIZ1 (11724087_x_at) / RFU OASL (11726364_x_at) / Fold change /veh OASL (11726364_x_at) / RFU SOX15 (11748057_x_at) / Fold change /veh SOX15 (11748057_x_at) / RFU CD79A (11719716_a_at) / Fold change /veh CD79A (11719716_a_at) / RFU HIST1H1D (11736915_at) / Fold change /veh HIST1H1D (11736915_at) / RFU CASKIN2 (11723855_a_at) / Fold change /veh CASKIN2 (11723855_a_at) / RFU LOC730098 (11760151_x_at) / Fold change /veh LOC730098 (11760151_x_at) / RFU OR4N2 (11742367_at) / Fold change /veh OR4N2 (11742367_at) / RFU PRRT2 (11749266_a_at) / Fold change /veh PRRT2 (11749266_a_at) / RFU SNX32 (11753110_a_at) / Fold change /veh SNX32 (11753110_a_at) / RFU CDHR5 (11726645_a_at) / Fold change /veh CDHR5 (11726645_a_at) / RFU RCAN1 (11760418_a_at) / Fold change /veh RCAN1 (11760418_a_at) / RFU FAM167A (11723789_a_at) / Fold change /veh FAM167A (11723789_a_at) / RFU FAM26E (11764081_at) / Fold change /veh FAM26E (11764081_at) / RFU ISYNA1 (11749810_s_at) / Fold change /veh ISYNA1 (11749810_s_at) / RFU ACY1 (11761880_at) / Fold change /veh ACY1 (11761880_at) / RFU 11764098_at / Fold change /veh 11764098_at / RFU SAMD14 (11745864_x_at) / Fold change /veh SAMD14 (11745864_x_at) / RFU NPB (11741838_a_at) / Fold change /veh NPB (11741838_a_at) / RFU TMPRSS6 (11731388_a_at) / Fold change /veh TMPRSS6 (11731388_a_at) / RFU KRTAP10-2 (11738614_at) / Fold change /veh KRTAP10-2 (11738614_at) / RFU ARHGAP8 /// PRR5-ARHGAP8 (11727945_x_at) / Fold change /veh ARHGAP8 /// PRR5-ARHGAP8 (11727945_x_at) / RFU KRTAP5-7 /// NADSYN1 (11734609_at) / Fold change /veh KRTAP5-7 /// NADSYN1 (11734609_at) / RFU RASL12 (11751679_a_at) / Fold change /veh RASL12 (11751679_a_at) / RFU CDKN2B (11736163_a_at) / Fold change /veh CDKN2B (11736163_a_at) / RFU PRF1 (11729649_at) / Fold change /veh PRF1 (11729649_at) / RFU, ZNF638 /// ZNF638-IT1 / Fold change vs veh, ZNF638 /// ZNF638-IT1 / RFU, PANK3 / Fold change vs veh, PANK3 / RFU, SH3YL1 / Fold change vs veh, SH3YL1 / RFU, ZEB2 / Fold change vs veh, ZEB2 / RFU, NRIP1 / Fold change vs veh, NRIP1 / RFU, PTTG1IP / Fold change vs veh, PTTG1IP / RFU, CAPN2 / Fold change vs veh, CAPN2 / RFU, MED14 / Fold change vs veh, MED14 / RFU, SNORA58 / Fold change vs veh, SNORA58 / RFU, C1orf63 / Fold change vs veh, C1orf63 / RFU, LRRFIP1 / Fold change vs veh, LRRFIP1 / RFU, NDUFAF7 / Fold change vs veh, NDUFAF7 / RFU, SLC12A2 / Fold change vs veh, SLC12A2 / RFU, IBTK / Fold change vs veh, IBTK / RFU, ESF1 / Fold change vs veh, ESF1 / Fold change vs veh, TMEM50B / RFU, TAOK1 / Fold change vs veh, TAOK1 / RFU, ACBD3 / Fold change vs veh, ACBD3 / RFU, TMA16 / Fold change vs veh, TMA16 / RFU, RWDD3 / Fold change vs veh, RWDD3 / RFU, BCAT1 / Fold change vs veh, BCAT1 / RFU, EDEM3 / Fold change vs veh, EDEM3 / RFU, TMEM33 / Fold change vs veh, TMEM33 / RFU, WDR75 / Fold change vs veh, WDR75 / RFU, AHCTF1 / Fold change vs veh, AHCTF1 / RFU, TFRC / Fold change vs veh, TFRC / RFU, ZDHHC17 / Fold change vs veh, ZDHHC17 / RFU, NOM1 / Fold change vs veh, NOM1 / RFU, ARL8B / Fold change vs veh, ARL8B / RFU, ZBTB11 / Fold change vs veh, ZBTB11 / RFU, TAMM41 / Fold change vs veh, TAMM41 / RFU, KIAA1704 /// LOC100996395 / Fold change vs veh, KIAA1704 /// LOC100996395 / RFU, ING1 / Fold change vs veh, ING1 / RFU, TRMT61B / Fold change vs veh, TRMT61B / RFU, FUBP3 / Fold change vs veh, FUBP3 / RFU, TP53 / Fold change vs veh, TP53 / RFU, TNKS2 / Fold change vs veh, TNKS2 / RFU, ZFP14 / Fold change vs veh, ZFP14 / RFU, ACTR2 / Fold change vs veh, ACTR2 / RFU, PPP3R1 / Fold change vs veh, PPP3R1 / RFU, PIK3R1 / Fold change vs veh, PIK3R1 / RFU, HNRNPA1 / Fold change vs veh, HNRNPA1 / RFU, RNF170 / Fold change vs veh, RNF170 / RFU, ZNF28 / Fold change vs veh, ZNF28 / RFU, RNGTT / Fold change vs veh, RNGTT / RFU, OGT / Fold change vs veh, OGT / RFU, BRD1 / Fold change vs veh, BRD1 / RFU, MARS / Fold change vs veh, MARS / RFU, ZNF655 / Fold change vs veh, ZNF655 / RFU, FAHD1 / Fold change vs veh, FAHD1 / RFU, BDP1 / Fold change vs veh, BDP1 / RFU, LRRCC1 / Fold change vs veh, LRRCC1 / RFU, ARID1A / Fold change vs veh, ARID1A / RFU, ZNF146 / Fold change vs veh, ZNF146 / RFU, ZNF330 / Fold change vs veh, ZNF330 / RFU, GPN3 / Fold change vs veh, GPN3 / RFU, C9orf123 / Fold change vs veh, C9orf123 / RFU, N4BP2L2 / Fold change vs veh, N4BP2L2 / RFU, ARFIP1 / Fold change vs veh, ARFIP1 / RFU, FAM179B / Fold change vs veh, FAM179B / RFU, BCL10 / Fold change vs veh, BCL10 / RFU, UHRF1BP1L / Fold change vs veh, UHRF1BP1L / RFU, BET1 / Fold change vs veh, BET1 / RFU, CNOT2 / Fold change vs veh, CNOT2 / RFU, ZNF268 / Fold change vs veh, ZNF268 / Fold change vs veh, ZNF507 / RFU, DGCR2 / Fold change vs veh, DGCR2 / RFU, WDSUB1 / Fold change vs veh, WDSUB1 / Fold change vs veh, HSP90B1 /// MIR3652 / RFU, ADSS / Fold change vs veh, ADSS / RFU, GK / Fold change vs veh, GK / RFU, ZNF148 / Fold change vs veh, ZNF148 / RFU, TAF9 / Fold change vs veh, TAF9 / RFU, SLC1A5 / Fold change vs veh, SLC1A5 / RFU, SLMO2 / Fold change vs veh, SLMO2 / RFU, ABCC4 / Fold change vs veh, ABCC4 / RFU, LOC101060439 /// RAP1B / Fold change vs veh, LOC101060439 /// RAP1B / RFU, RFX7 / Fold change vs veh, RFX7 / RFU, GTPBP10 / Fold change vs veh, GTPBP10 / RFU, CNEP1R1 / Fold change vs veh, CNEP1R1 / RFU, BIVM-ERCC5 /// ERCC5 / Fold change vs veh, BIVM-ERCC5 /// ERCC5 / RFU, ILF3 / Fold change vs veh, ILF3 / RFU 11762660_at / Fold change /veh 11762660_at / RFU VCAN (11757783_s_at) / Fold change /veh VCAN (11757783_s_at) / RFU DDX43 (11728927_at) / Fold change /veh DDX43 (11728927_at) / RFU KRT8 (11758188_x_at) / Fold change /veh KRT8 (11758188_x_at) / RFU NKD1 (11759106_at) / Fold change /veh NKD1 (11759106_at) / RFU SRD5A1 (11742802_a_at) / Fold change /veh SRD5A1 (11742802_a_at) / RFU TPSAB1 /// TPSB2 (11721975_s_at) / Fold change /veh TPSAB1 /// TPSB2 (11721975_s_at) / RFU GSTM3 (11746129_a_at) / Fold change /veh GSTM3 (11746129_a_at) / RFU IL23R (11737362_x_at) / Fold change /veh IL23R (11737362_x_at) / RFU TMEM51 (11727254_a_at) / Fold change /veh TMEM51 (11727254_a_at) / RFU PIWIL2 (11732686_x_at) / Fold change /veh PIWIL2 (11732686_x_at) / RFU ORM1 (11744905_x_at) / Fold change /veh ORM1 (11744905_x_at) / RFU CCDC152 (11743942_at) / Fold change /veh CCDC152 (11743942_at) / RFU ECM1 (11717891_a_at) / Fold change /veh ECM1 (11717891_a_at) / RFU IL23R (11748794_a_at) / Fold change /veh IL23R (11748794_a_at) / RFU TNFAIP8L3 (11732012_x_at) / Fold change /veh TNFAIP8L3 (11732012_x_at) / RFU MBOAT4 (11741988_at) / Fold change /veh MBOAT4 (11741988_at) / RFU 11764193_at / Fold change /veh 11764193_at / RFU TMEM53 (11763286_at) / Fold change /veh TMEM53 (11763286_at) / RFU MAGEB2 (11727129_at) / Fold change /veh MAGEB2 (11727129_at) / RFU TMEM200A (11744735_a_at) / Fold change /veh TMEM200A (11744735_a_at) / RFU CCDC152 (11751479_a_at) / Fold change /veh CCDC152 (11751479_a_at) / RFU FAM211A (11726209_a_at) / Fold change /veh FAM211A (11726209_a_at) / RFU RGS16 (11746705_a_at) / Fold change /veh RGS16 (11746705_a_at) / RFU VCAN (11755009_s_at) / Fold change /veh VCAN (11755009_s_at) / RFU RHOB (11743442_s_at) / Fold change /veh RHOB (11743442_s_at) / RFU RGS16 (11720943_a_at) / Fold change /veh RGS16 (11720943_a_at) / RFU RGS16 (11720944_at) / Fold change /veh RGS16 (11720944_at) / RFU, VPS4B / Fold change vs veh, VPS4B / RFU, CREB1 / Fold change vs veh, CREB1 / RFU, DNAJC13 / Fold change vs veh, DNAJC13 / RFU, GNAQ / Fold change vs veh, GNAQ / RFU, CDK5R1 / Fold change vs veh, CDK5R1 / RFU, ZRANB3 / Fold change vs veh, ZRANB3 / RFU, CUL4A / Fold change vs veh, CUL4A / RFU, CCNY / Fold change vs veh, CCNY / RFU, UFL1 / Fold change vs veh, UFL1 / RFU, COG3 / Fold change vs veh, COG3 / RFU, DIAPH2 / Fold change vs veh, DIAPH2 / RFU, SKA2 / Fold change vs veh, SKA2 / RFU, AFF3 / Fold change vs veh, AFF3 / RFU, LMF1 / Fold change vs veh, LMF1 / RFU, IPO11 / Fold change vs veh, IPO11 / RFU, DFFB / Fold change vs veh, DFFB / RFU, FOXP1 / Fold change vs veh, FOXP1 / RFU, CARD8 / Fold change vs veh, CARD8 / RFU, STRN3 / Fold change vs veh, STRN3 / RFU, ADK / Fold change vs veh, ADK / RFU, RASSF2 / Fold change vs veh, RASSF2 / RFU, WIPF1 / Fold change vs veh, WIPF1 / RFU, LARP1B / Fold change vs veh, LARP1B / RFU, RASA1 / Fold change vs veh, RASA1 / RFU, RB1 / Fold change vs veh, RB1 / RFU, PPFIA1 / Fold change vs veh, PPFIA1 / RFU, MAT2A / Fold change vs veh, MAT2A / RFU, CCT5 / Fold change vs veh, CCT5 / RFU, WDR92 / Fold change vs veh, WDR92 / RFU, CUX1 / Fold change vs veh, CUX1 / RFU, TTC7A / Fold change vs veh, TTC7A / RFU, TMEM135 / Fold change vs veh, TMEM135 / RFU, DEPTOR / Fold change vs veh, DEPTOR / RFU, CPM / Fold change vs veh, CPM / RFU, DNAJB6 / Fold change vs veh, DNAJB6 / RFU, CACNA2D3 / Fold change vs veh, CACNA2D3 / RFU, DTX4 / Fold change vs veh, DTX4 / RFU, TFCP2 / Fold change vs veh, TFCP2 / RFU, GMCL1 /// GMCL1P1 / Fold change vs veh, GMCL1 /// GMCL1P1 / RFU, AEBP2 / Fold change vs veh, AEBP2 / RFU, SNHG1 /// SNORD22 /// SNORD25 /// SNORD26 /// SNORD27 /// SNORD28 /// SNORD29 /// SNORD31 / Fold change vs veh, SNHG1 /// SNORD22 /// SNORD25 /// SNORD26 /// SNORD27 /// SNORD28 /// SNORD29 /// SNORD31 / Fold change (Aza/veh), C12orf56 (ProbeSet 11735607_a_at) / Fold change (ACY-1035/veh), C12orf56 (ProbeSet 11735607_a_at) / Fold change (Aza/veh), FGFR1OP (ProbeSet 11751329_s_at) / Fold change (ACY-1035/veh), FGFR1OP (ProbeSet 11751329_s_at) / Fold change (Aza/veh), VPS36 (ProbeSet 11739960_a_at) / Fold change (ACY-1035/veh), VPS36 (ProbeSet 11739960_a_at) / RFU SYPL1 (11715823_x_at) / Fold change /veh SYPL1 (11715823_x_at) / RFU IGFBP7 (11715501_s_at) / Fold change /veh IGFBP7 (11715501_s_at) / RFU REEP3 (11722064_at) / Fold change /veh REEP3 (11722064_at) / RFU IGLL1 (11728026_x_at) / Fold change /veh IGLL1 (11728026_x_at): dose or concentration left out as unconfirmed
Settings: ProbeSet 11727958_a_at; LIST B

Nc1ncn([C@@H]2O[C@H](CO)[C@@H](O)[C@H]2O)c(=O)n1 [azacitidine]
RFU, ING1: 72.09 RFU
